This note sets out measurements from paper PMC3701698, “Pathway-based Screening Strategy for Multitarget Inhibitors of Diverse Proteins in Metabolic Pathways” (PLoS Computational Biology, 2013).

Where two headings read alike, the source gives them in different places.

One assay deals with shikimate kinase (SK) (Helicobacter pylori, UniProt P56073). Briefly: Single enzyme inhibition assay, SK activity (ADP release coupled to NADH oxidation). Format: biochemical. As to conditions: for IC50: 1.6 mM shikimate, 2 mM ATP, 25°C, pH 8.0; for inhibition at 100 µM: Table S4, read-out: SK IC50 (μM), dash = inhibition percentage. As for the experimental part: (§1) The SK activity was measured by coupling the release of ADP from the SK-catalyzed reaction to the oxidation of NADH using pyruvate kinase (EC 2.7.1.40) and lactate dehydrogenase (EC 1.1.1.27) as coupling enzymes. SDH activity was determined by monitoring the formation of NADPH. The initial rate of the reaction was measured by the increase in absorbance at A340 (ε = 6,200 M^−1 cm^−1) in the present of shikimate. The assay was performed at 25°C in a mixture of 100 mM Tris-HCl buffer, pH 8.0.
(§2) Both SK and SDH were used in a final enzyme concentration of 100 nM. For determination of IC50 for each inhibitor, the assay was initiated by the addition of shikimate (1.6 mM) after incubation in a buffer containing cofactor (2 mM ATP for SK or 2 mM NADP for SDH), enzyme, and inhibitor (dissolved in 5% dimethyl sulfoxide). All assays were conducted in a 96-well microplate and analyzed with a spectrophotometer (FLUOstar OPTIMA, BMG LABTECH). A dose-response curve was fitted using the non-linear regression function of GraphPad Prism®.

The target of assay [1] is T1, shikimate dehydrogenase (SDH) (Helicobacter pylori, UniProt P56119).
T1 sequence (P56119 1-263): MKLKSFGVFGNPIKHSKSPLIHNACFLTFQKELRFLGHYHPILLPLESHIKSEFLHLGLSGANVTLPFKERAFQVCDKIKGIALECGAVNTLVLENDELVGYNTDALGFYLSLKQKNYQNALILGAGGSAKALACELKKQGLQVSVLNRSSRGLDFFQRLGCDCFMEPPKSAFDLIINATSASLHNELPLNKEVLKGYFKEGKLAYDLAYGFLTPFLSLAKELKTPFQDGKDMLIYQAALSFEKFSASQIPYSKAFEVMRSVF
Briefly: Single enzyme inhibition assay, SDH activity (formation of NADPH, A340). The format is biochemical. The following applies: for IC50: 1.6 mM shikimate, 2 mM NADP, 25°C, pH 8.0. As for the experimental part:
as §1, §2

For assay [2], the target named is T2, 3-dehydroquinate synthase (Helicobacter pylori, UniProt P56081).
T2 sequence (P56081 1-343): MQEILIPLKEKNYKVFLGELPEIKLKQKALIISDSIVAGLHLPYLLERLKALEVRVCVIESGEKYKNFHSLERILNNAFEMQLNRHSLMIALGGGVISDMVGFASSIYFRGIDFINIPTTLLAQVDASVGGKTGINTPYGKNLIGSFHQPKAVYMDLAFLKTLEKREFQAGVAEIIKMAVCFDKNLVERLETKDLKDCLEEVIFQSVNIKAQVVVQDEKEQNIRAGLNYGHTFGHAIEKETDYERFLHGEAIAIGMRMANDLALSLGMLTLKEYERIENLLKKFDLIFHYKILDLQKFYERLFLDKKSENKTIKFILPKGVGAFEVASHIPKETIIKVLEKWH
Kind of assay: 3-dehydroquinate synthase inhibition assay (NADH quantification). The following applies: for inhibition of 3-dehydroquinate synthase: 1 mM DAHP, 0.5 mM NAD+. Format: biochemical. The method, then:
(§3) We performed ADP assay providing a direct method to analyze SDH-SK dual enzyme activity. The assay was initiated by addition of the 3-dehydroshikimate (2 mM) after incubating in a reaction mixture containing 2.5 mM ATP, 0.5 mM NADPH, 100 nM SDH, 100 nM SK enzyme, 50 mM KCl, 5 mM MgCl2 and different inhibitors. The reaction was carried out at 25°C in a mixture of 100 mM Tris-HCl buffer, pH 7.5 and terminated at 100°C for 5 mins in the reaction time of initial rate. The amount of ADP was measured by using ADP Colorimetric Assay Kit II (BioVision) according to the manufacturer's instruction. We also performed 3-dehydroquinate synthase inhibition assay. The reaction was comprised of 3-deoxy-D-arabinoheptulosonate 7-phosphate (1 mM) and NAD+ (0.5 mM). The amount of NADH was measured by using NAD+/NADH Quantification Kit (BioVision). All assays were conducted in a 96-well microplate and analyzed with a spectrophotometer (FLUOstar OPTIMA, BMG LABTECH). The dose-response curve was fitted using the non-linear regression function of GraphPad Prism. The IC90 values were computed from the IC50 and Hill slop.

A further assay deals with dual enzyme (SDH and SK). Kind of assay: SDH-SK dual enzyme activity ADP assay. As to conditions: for dual enzyme dose-response curve compared with SDH and SK curves: 2 mM 3-dehydroshikimate, 100 nM SDH, 100 nM SK; for dual enzyme (SDH and SK) activity curve: at inhibitor concentrations greater than the IC90 value. Format: biochemical, Helicobacter pylori. As for the experimental part:
as §3

The mark [3] stands for this setting: 100 nM enzyme, read-out: SK IC50.
Where [4] appears, read: 100 nM enzyme, read-out: SDH IC50.

The term IC50 denotes the concentration that inhibits the measured activity by half. As usually defined, the inhibition is how much of the control response was suppressed.

shikimate kinase (SK), sequence (P56073 whole entry): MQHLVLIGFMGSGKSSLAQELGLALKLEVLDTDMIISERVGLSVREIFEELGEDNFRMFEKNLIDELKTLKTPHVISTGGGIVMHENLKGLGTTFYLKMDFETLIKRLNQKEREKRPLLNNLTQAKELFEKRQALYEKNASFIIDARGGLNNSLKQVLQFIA

As for `Cc1cc(/N=N/c2ccc(/N=N/c3ccc(/N=N/c4ccc(O)c(C(=O)O)c4)cc3)c(S(=O)(=O)O)c2C)c(N)cc1N` [NSC45611], the IC50 on shikimate kinase (SK) (setting [3]) is 4.8 µM; in assay [1] (setting [4]), 1.4 µM. Besides, the “inhibition of 3-dehydroquinate synthase” value in assay [2] was “no inhibitions”. Further, the “dual enzyme dose-response curve compared with SDH and SK curves” value in the assay with dual enzyme (SDH and SK) is “median effect”. Besides, the “dual enzyme (SDH and SK) activity curve” value in the assay on dual enzyme (SDH and SK) is given as “approximately 0”.

Take `O=C(NNC(=O)C1c2ccccc2Oc2ccccc21)c1cccc([N+](=O)[O-])c1` [RH00037]: in assay [1] (setting [4]), the IC50 is 24.8 µM. Further, in assay [2], the “inhibition of 3-dehydroquinate synthase” value is reported as “no inhibitions”.

On to `O=C(Nc1ccc2ncccc2c1)Nc1ccc2ncccc2c1` [NSC71881], for which the inhibition at 100 µM at shikimate kinase (SK) was under 50%; in assay [1] (at 100 μM, Table S4, read-out: SDH IC50 (μM), dash = inhibition percentage), under 50%.

Take `Nc1ccc2c(O)c(N=Nc3ccc4c(O)cc(S(=O)(=O)O)cc4c3)c(S(=O)(=O)O)cc2c1` [NSC162535, reference compound]: the “dual enzyme dose-response curve compared with SDH and SK curves” value in the assay on dual enzyme (SDH and SK) is recorded as “nearly identical profiles”.

With `Cc1ccc(S(=O)(=O)CCSc2n[nH]c(=O)n2-c2ccc(OCc3ccccc3)cc2)cc1` [HTS02873], the IC50 on shikimate kinase (SK) (setting [3]) was over 100 µM; in assay [1] (setting [4]), 4.9 µM. Besides, on shikimate kinase (SK) (at 100 µM), the “inhibitory effect for SK” value is reported as “no inhibitory effect”. At shikimate kinase (SK), the inhibition at 100 µM is under 50%.

On to `O=C(Nc1ccc2c(O)cc(S(=O)(=O)O)cc2c1)Nc1ccc2c(O)cc(S(=O)(=O)O)cc2c1` [NSC45174], for which the IC50 is under 10 µM against shikimate kinase (SK) (SK IC50, 100 nM enzyme); 3.6 µM in assay [1] (SDH IC50, 100 nM enzyme); 7.1 µM in assay [2]. Besides, the “dual enzyme dose-response curve compared with SDH and SK curves” value in the assay with dual enzyme (SDH and SK) is reported as “median effect”. Also, the “dual enzyme (SDH and SK) activity curve” value with dual enzyme (SDH and SK) is reported as “approximately 0”.
